For this test, the target named is T1, ALK-5 (TβRI) (Homo sapiens, UniProt P36897).
T1 construct: using either the kinase domain of ALK5 with Smad3 as substrate; GST
T1 sequence (P36897 205-495 limits assumed): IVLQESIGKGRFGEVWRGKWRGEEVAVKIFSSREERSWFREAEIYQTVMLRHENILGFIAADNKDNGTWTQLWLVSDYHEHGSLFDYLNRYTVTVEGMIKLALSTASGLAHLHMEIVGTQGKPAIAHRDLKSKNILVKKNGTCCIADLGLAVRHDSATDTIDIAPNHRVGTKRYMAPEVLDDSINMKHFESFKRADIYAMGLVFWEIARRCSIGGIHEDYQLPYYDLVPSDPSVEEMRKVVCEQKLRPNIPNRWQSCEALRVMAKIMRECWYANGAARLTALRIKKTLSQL
Briefly: ALK-5 (TβRI) Kinase Assay. The class given is biochemical. As to the method:
The kinase assays were performed with 65 nM GST-ALK5 and 84 nM GST-Smad3 in 50 mM HEPES, 5 mM MgCl2, 1 mM CaCl2, 1 mM dithiothreitol, and 3_M ATP. Reactions were incubated with 0.5_Ci of [33 P]_ATP for 3 h at 30° C. Phosphorylated protein was captured on P-81 paper (Whatman, Maidstone, England), washed with 0.5% phosphoric acid, and counted by liquid scintillation. Alternatively, Smad3 or Smad1 protein was also coated onto FlashPlate Sterile Basic Microplates (PerkinElmer Life Sciences, Boston, Mass.). Kinase assays were then performed in Flash-Plates with same assay conditions using either the kinase domain of ALK5 with Smad3 as substrate or the kinase domain of ALK6 (BMP receptor) with Smad1 as substrate. Plates were washed three times with phosphate buffer and counted by TopCount (Packard Bio-science, Meriden, Conn.). (Laping, N. J. et al. Molecular Pharmacology 62:58-64 (2002)).

This note sets out measurements from patent US7638537B2, “Pyrazole compounds as transforming growth factor (TGF) inhibitors” (Pfizer Inc., priority 2002, dated 2009).

pIC50: −log10 of the molar value.

Compound `c1ccc(-c2n[nH]cc2-c2ccc3c(c2)OCO3)nc1` [Example 7, 2-(4-Benzo[1,3]dioxol-5-yl-1H-pyrazol-3-yl)-pyridine] had a pIC50 of around 7.29.
